Patent USRE48335E1, “Polymyxin derivatives as antimicrobial compounds” (priority 2014, dated 2020)
Values after ≈ are worked out from the molar mass of the structure shown. Positions of bridges follow the written chain, without caps; N, C: chain ends. Non-standard residues stand in square brackets, D forms with d. Residues, ends and D or L forms follow the SMILES beside them. *: point of attachment. Benzoyl(3-CF3) = O=C(c1cccc(C(F)(F)F)c1)*; Benzoyl(4-Cl) = O=C(c1ccc(Cl)cc1)*; X12 = O=C(c1ccc(C(F)(F)F)c(F)c1)*; X9 = Cc1ccc(C(=O)*)cc1C(F)(F)F; X11 = Cc1ccc(C(=O)*)cc1Cl; Octanoyl = CCCCCCCC(=O)*; Dab = NCC[C@H](N)C(=O)O; Abu = CC[C@H](N)C(=O)O; Dap = NC[C@H](N)C(=O)O

How the values were obtained:
Enterobacter cloacae = test system: Enterobacter cloacae
Method in brief: (§1)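 Minimum inhibitory concentrations come from CLSI-standard broth microdilution in cation-adjusted Mueller-Hinton broth.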

Klebsiella pneumoniae = test system: Klebsiella pneumoniae
Method in brief: as §1

Acinetobacter baumannii = test system: Acinetobacter baumannii
Method in brief: as §1

Pseudomonas aeruginosa = test system: Pseudomonas aeruginosa
Method in brief: as §1

A. baumannii ATCC 19606 = test: In vivo efficacy in mouse blood infection model (neutropenic Swiss mice); details: compound, free base 4 mg/kg intravenously 2 h after inoculation, blood at 4 h
Method in brief: (§2)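 Neutropenic Swiss mice (cyclophosphamide 150 mg/kg day −4, 100 mg/kg day −1, i.p.) infected i.v. with early log-phase bacteria; 4 mg/kg free base i.v. given 2 h post-inoculation. Blood CFU by cardiac puncture 4 h post-dose; Δlog10 CFU/mL treated versus saline controls.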

P. aeruginosa ATCC 27853 = test: as above; details: compound, free base 4 mg/kg intravenously 2 h after inoculation, blood at 4 h
Method in brief: as §2

Row | SMILES | Minimum inhibitory concentration, Ec FADDI-EC001 (Enterobacter cloacae) | Minimum inhibitory concentration, Ec FADDI-EC003 (Enterobacter cloacae) | Minimum inhibitory concentration, Ec FADDI-EC006 (Enterobacter cloacae) | MIC (Klebsiella pneumoniae) | MIC (Acinetobacter baumannii) | Minimum inhibitory concentration, Ab A ATCC 17978 (Acinetobacter baumannii) | Minimum inhibitory concentration, Ab ATCC 19606 (Acinetobacter baumannii) | Minimum inhibitory concentration, Ab FADDI-AB034 (Acinetobacter baumannii) | MIC (Pseudomonas aeruginosa) | Minimum inhibitory concentration, Pa ATCC 27853 (Pseudomonas aeruginosa) | Minimum inhibitory concentration, Pa FADDI-PA022 (Pseudomonas aeruginosa) | Minimum inhibitory concentration, Pa FADDI-PA025 (Pseudomonas aeruginosa) | Δ log (Treated-Control at 4 h) (A. baumannii ATCC 19606) | Δ log (Treated-Control at 4 h) (P. aeruginosa ATCC 27853)
1 | CC[C@@H]1NC(=O)[C@@H](CC(C)C)NC(=O)[C@H](CCN)NC(=O)[C@@H](NC(=O)[C@@H](CO)NC(=O)[C@@H](NC(=O)[C@H](CCN)NC(=O)c2cccc(C(F)(F)F)c2)[C@@H](C)O)CCNC(=O)[C@H]([C@@H](C)O)NC(=O)[C@H](CCN)NC(=O)[C@H](CCN)NC1=O [Compound 18] ({Benzoyl(3-CF3)}-[Dab]T[dS][Dab][Dab][dL][Abu][Dab][Dab]T; lactam 4-C) | 1 µg/mL (≈ 0.862 µM) | 0.5 µg/mL (≈ 0.431 µM) | 0.5 µg/mL (≈ 0.431 µM) | 0.25 µg/mL (≈ 0.215 µM) | 0.5 µg/mL (≈ 0.431 µM) | 0.5 µg/mL (≈ 0.431 µM) | 0.5 µg/mL (≈ 0.431 µM) | 0.5 µg/mL (≈ 0.431 µM) | 8 µg/mL (≈ 6.89 µM) | 8 µg/mL (≈ 6.89 µM) | 8 µg/mL (≈ 6.89 µM) | 2 µg/mL (≈ 1.72 µM) | −1.57 log10 CFU/mL | –
2 | CC(C)C[C@H]1NC(=O)[C@H](CCN)NC(=O)[C@@H](NC(=O)[C@@H](CO)NC(=O)[C@@H](NC(=O)[C@H](CCN)NC(=O)c2cccc(C(F)(F)F)c2)[C@@H](C)O)CCNC(=O)[C@H]([C@@H](C)O)NC(=O)[C@H](CCN)NC(=O)[C@H](CCN)NC(=O)[C@H]([C@@H](C)O)NC1=O [Compound 19] ({Benzoyl(3-CF3)}-[Dab]T[dS][Dab][Dab][dL]T[Dab][Dab]T; lactam 4-C) | 1 µg/mL (≈ 0.85 µM) | 0.5 µg/mL (≈ 0.425 µM) | 0.5 µg/mL (≈ 0.425 µM) | 0.5 µg/mL (≈ 0.425 µM) | 2 µg/mL (≈ 1.7 µM) | 0.5 µg/mL (≈ 0.425 µM) | 2 µg/mL (≈ 1.7 µM) | 4 µg/mL (≈ 3.4 µM) | 32 µg/mL (≈ 27.2 µM) | 32 µg/mL (≈ 27.2 µM) | 16 µg/mL (≈ 13.6 µM) | >32 µg/mL | −1.58 log10 CFU/mL | –
3 | CCCCCCCC(=O)N[C@@H](CCN)C(=O)N[C@H](C(=O)N[C@@H](CCN)C(=O)N[C@H]1CCNC(=O)[C@H]([C@@H](C)O)NC(=O)[C@H](CCN)NC(=O)[C@H](CCN)NC(=O)[C@H](C)NC(=O)[C@@H](CC(C)C)NC(=O)[C@H](CCN)NC1=O)[C@@H](C)O [Compound 21] (Octanoyl-[Dab]T[Dab][Dab][Dab][dL]A[Dab][Dab]T; lactam 4-C) | 0.125 µg/mL (≈ 0.112 µM) | 0.125 µg/mL (≈ 0.112 µM) | 0.125 µg/mL (≈ 0.112 µM) | 0.25 µg/mL (≈ 0.225 µM) | 1 µg/mL (≈ 0.898 µM) | 2 µg/mL (≈ 1.8 µM) | 1 µg/mL (≈ 0.898 µM) | 0.5 µg/mL (≈ 0.449 µM) | 0.5 µg/mL (≈ 0.449 µM) | 0.5 µg/mL (≈ 0.449 µM) | 0.5 µg/mL (≈ 0.449 µM) | >32 µg/mL | −2.43 log10 CFU/mL | −2.26 log10 CFU/mL
4 | CC[C@@H]1NC(=O)[C@@H](CC(C)C)NC(=O)[C@H](CCN)NC(=O)[C@@H](NC(=O)[C@H](CN)NC(=O)[C@@H](NC(=O)[C@H](CCN)NC(=O)c2ccc(Cl)cc2)[C@@H](C)O)CCNC(=O)[C@H]([C@@H](C)O)NC(=O)[C@H](CCN)NC(=O)[C@H](CCN)NC1=O [Compound 94] ({Benzoyl(4-Cl)}-[Dab]T[Dap][Dab][Dab][dL][Abu][Dab][Dab]T; lactam 4-C) | 0.25 µg/mL (≈ 0.222 µM) | 0.25 µg/mL (≈ 0.222 µM) | 0.5 µg/mL (≈ 0.444 µM) | 0.25 µg/mL (≈ 0.222 µM) | 1 µg/mL (≈ 0.888 µM) | 0.5 µg/mL (≈ 0.444 µM) | 1 µg/mL (≈ 0.888 µM) | 0.25 µg/mL (≈ 0.222 µM) | 0.5 µg/mL (≈ 0.444 µM) | 0.5 µg/mL (≈ 0.444 µM) | 0.5 µg/mL (≈ 0.444 µM) | 2 µg/mL (≈ 1.78 µM) | −1.26 log10 CFU/mL | −3.23 log10 CFU/mL
5 | CC[C@@H]1NC(=O)[C@@H](CC(C)C)NC(=O)[C@H](CCN)NC(=O)[C@@H](NC(=O)[C@H](CN)NC(=O)[C@@H](NC(=O)[C@H](CCN)NC(=O)c2ccc(C)c(Cl)c2)[C@@H](C)O)CCNC(=O)[C@H]([C@@H](C)O)NC(=O)[C@H](CCN)NC(=O)[C@H](CCN)NC1=O [Compound 105] (X11-[Dab]T[Dap][Dab][Dab][dL][Abu][Dab][Dab]T; lactam 4-C) | 1 µg/mL (≈ 0.877 µM) | 0.5 µg/mL (≈ 0.439 µM) | 1 µg/mL (≈ 0.877 µM) | 0.25 µg/mL (≈ 0.219 µM) | 0.5 µg/mL (≈ 0.439 µM) | 0.5 µg/mL (≈ 0.439 µM) | 0.5 µg/mL (≈ 0.439 µM) | 0.25 µg/mL (≈ 0.219 µM) | 0.5 µg/mL (≈ 0.439 µM) | 0.5 µg/mL (≈ 0.439 µM) | 1 µg/mL (≈ 0.877 µM) | 2 µg/mL (≈ 1.75 µM) | −1.31 log10 CFU/mL | −2.54 log10 CFU/mL
6 | CC[C@@H]1NC(=O)[C@@H](CC(C)C)NC(=O)[C@H](CCN)NC(=O)[C@@H](NC(=O)[C@H](CN)NC(=O)[C@@H](NC(=O)[C@H](CCN)NC(=O)c2ccc(C(F)(F)F)c(F)c2)[C@@H](C)O)CCNC(=O)[C@H]([C@@H](C)O)NC(=O)[C@H](CCN)NC(=O)[C@H](CCN)NC1=O [Compound 111] (X12-[Dab]T[Dap][Dab][Dab][dL][Abu][Dab][Dab]T; lactam 4-C) | 0.5 µg/mL (≈ 0.425 µM) | 0.25 µg/mL (≈ 0.212 µM) | 0.25 µg/mL (≈ 0.212 µM) | 0.25 µg/mL (≈ 0.212 µM) | 0.5 µg/mL (≈ 0.425 µM) | 0.5 µg/mL (≈ 0.425 µM) | 0.5 µg/mL (≈ 0.425 µM) | 0.25 µg/mL (≈ 0.212 µM) | 1 µg/mL (≈ 0.849 µM) | 0.5 µg/mL (≈ 0.425 µM) | 1 µg/mL (≈ 0.849 µM) | 1 µg/mL (≈ 0.849 µM) | −1.66 log10 CFU/mL | −3.65 log10 CFU/mL
7 | CC[C@@H]1NC(=O)[C@@H](CC(C)C)NC(=O)[C@H](CCN)NC(=O)[C@@H](NC(=O)[C@H](CN)NC(=O)[C@@H](NC(=O)[C@H](CCN)NC(=O)c2ccc(C)c(C(F)(F)F)c2)[C@@H](C)O)CCNC(=O)[C@H]([C@@H](C)O)NC(=O)[C@H](CCN)NC(=O)[C@H](CCN)NC1=O [Compound 113] (X9-[Dab]T[Dap][Dab][Dab][dL][Abu][Dab][Dab]T; lactam 4-C) | 1 µg/mL (≈ 0.852 µM) | 0.25 µg/mL (≈ 0.213 µM) | 1 µg/mL (≈ 0.852 µM) | 0.25 µg/mL (≈ 0.213 µM) | 0.5 µg/mL (≈ 0.426 µM) | 0.25 µg/mL (≈ 0.213 µM) | 0.5 µg/mL (≈ 0.426 µM) | 0.25 µg/mL (≈ 0.213 µM) | 0.5 µg/mL (≈ 0.426 µM) | 1 µg/mL (≈ 0.852 µM) | 0.5 µg/mL (≈ 0.426 µM) | 2 µg/mL (≈ 1.7 µM) | −1.60 log10 CFU/mL | −2.61 log10 CFU/mL
